This note sets out measurements from a melting point compilation (Tetko et al.; mined from patent text by program, amines drawn as free bases though some values may be those of a salt).

By melting point is commonly meant the temperature, or range, at which the solid turns liquid.

In turn, `COC1(OCCc2nc(C(C)C)c(Sc3cc(Cl)cc(Cl)c3)n2C)c2ccccc2-c2ccccc21` yielded a melting point of 130 to 131 °C.
`CCOC(=O)C1=C(O)c2ccccc2N(c2ccccc2)C1` gave a melting point of 103 to 106 °C.
`C=C1CSC2C(NC(=O)COc3ccccc3)C(=O)N2C1C(=O)O` (stereo not drawn): the melting point lay within 185 to 188 °C.
Compound `CCCCCCCCCCCc1nc(N)n[nH]1` displayed a melting point of 128 to 132 °C.
`O=c1c(-c2ccc(F)cc2)c(-c2ccc(S(=O)(=O)C(F)(F)F)cc2)cnn1Cc1ccccc1` displayed a melting point of 80 to 115 °C.
`COc1cc(OC)nc(OC)c1` registered a melting point of 47 to 49 °C.
As for `CCc1ccccc1-n1c(=O)[nH]c2c(C(N)=O)nc(-c3cccc(O)c3)nc21`, the melting point fell in the range of 355 to 357 °C.
On to `c1csc(-c2ccc(C34CCN(CC3)C4)cn2)n1`, for which the melting point was in the range of 127 to 129 °C.
As for `CC(=O)c1ccc(S(=O)(=O)NCCN2CCOCC2)cc1`, the figure is 128 to 129 °C; as for `CC(C)CN(Cc1csc(C(C)C)n1)C(=O)N[C@H](C(=O)N[C@@H](Cc1ccccc1)C[C@H](O)[C@H](Cc1ccccc1)NC(=O)OCc1cncs1)C(C)C`, 60 to 61 °C.
The compound `Nc1ccc(-n2ncnc2-c2ccccc2)cc1` yielded a melting point of 161 to 163 °C.
For `CCCCNC(=O)CCCCCCCSc1nc(-c2ccccc2)c(-c2ccccc2)[nH]1`, the melting point was in the range of 136 to 137 °C.
On to `CN(CCF)C1CN(c2ccc(N3C[C@H](CN=[N+]=[N-])OC3=O)cc2F)C1`, for which the melting point was 60 to 63 °C.
Compound `O=C(O)c1cc(=O)c2cccc(/C=C/c3ccc(OCCCCc4ccc(F)cc4)cc3)c2o1` displayed a melting point of 161 to 162 °C.
As for `C#CC12CCCN(CC1)C2` (stereo not drawn), the figure is 41 to 42 °C; as for `N#Cc1ncccc1C(=O)ON=Cc1ccc(Cl)cc1`, 160 °C; as for `CCC(=Cc1ccc(N(C)C)cc1Cl)[N+](=O)[O-]`, 90 to 91 °C.
Compound `CC(Oc1ccc2nc(NC(=O)NCCN3CCOCC3)sc2c1)c1c(Cl)cccc1Cl` (stereo not drawn) displayed a melting point of 165 to 168 °C.
`CCC(I)CCCC(F)(F)C(F)(F)C(F)(F)C(F)(F)C(F)(F)C(F)(F)C(F)(F)C(F)(F)F` (stereo not drawn) yielded a melting point of 46 to 47 °C.
For `O=C1CCc2c1cnn2Cc1ccccc1`, the melting point is 92 to 93 °C.
In the case of `N#Cc1ccc(CC23CCCN2C(=O)N(c2cc(Cl)cc(-n4cccc4)c2)C3=O)cc1` (stereo not drawn), the melting point worked out at 266 °C.
In the case of `ON=Cc1cccc(OCc2ccccc2)c1`, the melting point lay in the range of 58 to 59 °C.
For `N#CC1=C(CN2C(=O)c3ccccc3C2=O)Nc2n[nH]cc2C1c1ccccc1Cl` (stereo not drawn), the melting point was greater than 250 °C.
As to `COc1cc2c(O)c(S(=O)(=O)N(C)C)cnc2cc1Cl`, the melting point fell in the range of 316 to 318 °C.
As to `O=C(Nc1ccccc1S(=O)(=O)c1ccccc1)N[C@@H](Cc1ccc(NC(=O)c2c(Br)cncc2Br)cc1)C(=O)O`, the melting point came out at 231 °C.
As to `S=C=NC1(Br)C=Cc2nccnc2C1` (stereo not drawn), the melting point is 157 to 158 °C.
As for `Cc1nc(N2CCN(C(=O)c3ccco3)CC2)nnc1-c1ccccc1`, the figure is 142 °C.
`CC1(C)C(=O)Nc2ccc(C3=NNC(=O)C4CC34)cc21` (stereo not drawn) had a melting point of 334 to 335 °C.
The compound `CNC(=O)C(NC(=O)c1cn(C)nc1C(F)(F)F)C(/C=C/c1ccccc1)c1ccccc1` (stereo not drawn) gave a melting point of 192 to 194 °C.
Compound `CS(=O)(=O)Oc1ccc(C(c2ccc(OS(C)(=O)=O)c([N+](=O)[O-])c2)(C(F)(F)F)C(F)(F)F)cc1[N+](=O)[O-]` yielded a melting point of 119 to 121 °C.
In turn, `CCCCNC(=N)NC(=O)NCCCC` came in with a melting point of 82 to 94 °C.
As for `Fc1ccc(-c2[nH]nc(C3=C[C@@H]4C[C@@H](c5ccccc5)CN4CC3)c2-c2ccncc2)cc1Cl`, the figure is 179 to 180 °C; as for `CC(C)(S)CNC(=O)c1nccnc1C(=O)O`, 141 to 144 °C; as for `Nc1sc2c(c1C(=O)c1cc3ccccc3o1)CCN(Cc1ccccc1)C2`, 83 to 87 °C.
Compound `N#Cc1cn(-c2ccc([N+](=O)[O-])cc2)nc1[N+](=O)[O-]` returned a melting point of 172 to 175 °C.
The figure for `CS(=O)(=O)c1c(C(=O)O)ccc(F)c1F` is 194 °C; for `S=C(NC1CC1)N1CCc2[nH]cnc2C1` it is 185 °C; for `COc1nc2cc(Cl)c(Cl)cc2nc1N1CCN(C)CC1` it is 92.6 to 99 °C.
As for `COc1ccc(C(=O)OC2CCCC2)nc1Cl`, the figure is 90 to 92 °C; as for `COc1ccc(F)c(F)c1C(=O)c1cnc(NC2CCN(S(N)(=O)=O)CC2)nc1N`, 217 to 218 °C; as for `O=C(/C=C/c1ccc(C(F)(F)F)cc1-c1ccncc1)Nc1ccc2[nH]ccc2c1`, 229 to 234 °C.
`Cc1[nH]c2ccccc2c1C(C)c1cccnc1` (stereo not drawn): the melting point is 139 to 141 °C.
Take `CCOC(=O)c1nn(C)c(OC(F)F)c1CO`: the melting point was 90 to 91 °C.
`CCOC(=O)CCCCC(=O)OCC1=C(C(=O)OCC)C(c2ccccc2Cl)C(C(=O)OCC)=C(C)N1` (stereo not drawn) returned a melting point of 91 to 92 °C.
As for `O=C(O)C[C@H](NC(=O)OCc1ccccc1)C(=O)Nc1cc(Cc2n[nH]c(=O)c3ccccc23)ccc1F`, the figure is 188 to 190 °C.
As for `O=C(Nc1c(C(O)(C(F)(F)F)C(F)(F)F)ccc2ccccc12)c1ccc(Cl)cc1`, the melting point was in the range of 175 to 176 °C.
The compound `CN1C(=O)[C@H](NC(=O)CC2CCCCC2)N=C(c2ccccc2)c2ccccc21` returned a melting point of 144 to 146 °C.
Take `Cc1cccc(-c2cn(C)cc(-c3cccc(C(F)(F)F)c3)c2=S)c1`: the melting point was 193 to 196 °C.
As for `CCCn1c(N)c(NC(=O)C2(NC(=O)C(F)(F)F)CCCC2)c(=O)n(CCC)c1=O`, the melting point fell in the range of 203 to 204 °C.
The compound `COc1cc2c(cc1[N+](=O)[O-])C(=O)C1(CC1)O2` had a melting point of 160 to 163 °C.
The compound `NC(=S)NN=CC=Cc1ccccc1` yielded a melting point of 137 to 139 °C.
As for `CC(C)CC(O)(Cn1cncn1)c1ccccc1` (stereo not drawn), the figure is 94 to 95 °C; as for `O=C(O)CCc1nc(-c2cc3ccccc3o2)no1`, 154 to 155 °C; as for `Cn1cc(O)c(=O)c2cc(F)c(F)cc21`, 264 to 265 °C.
In turn, `CC1NC(=O)CC2(C)CC1c1ccccc1O2` (stereo not drawn) returned a melting point of 164 °C.
As to `CCOP(=O)(CC(=O)NNc1nc2ccc(C(F)(F)F)cc2n(O)c1=O)OCC`, the melting point is 193 to 196 °C.
The figure for `COc1cc(C=C2C(=O)CCc3ccccc32)c([N+](=O)[O-])cc1OC` is 58 to 60 °C; for `O=c1cnc(C(F)(F)F)cn1-c1c(Cl)cc(C(F)(F)F)cc1[N+](=O)[O-]` it is 145 to 147 °C; for `COc1ccc(NC(=O)c2ccncc2)c2c1oc1ccccc12` it is 221 °C.
`COc1ccc(N2CCN(c3c(C)c(C)c4c(c3C)CC(C)(Cn3cccn3)O4)CC2)cc1` (stereo not drawn) showed a melting point of 117 to 120 °C.
The figure for `CN1c2ccccc2C(C#N)c2ccccc21` is 141 to 143 °C; for `O=c1[nH]c(CO)nc2cc3c(cc12)CCC3` it is 205 to 210 °C; for `CCCCc1nn(-c2cc(NC(=O)CC)ccc2Cl)c(=O)n1Cc1ccc(-c2ccccc2S(=O)(=O)NC(=O)OC(C)(C)C)cc1` it is 133 to 135 °C.
In turn, `O=c1[nH]c(=O)n(COC(CO)CO)cc1Cc1cccc(OCc2ccccc2)c1` displayed a melting point of 113 °C.
The figure for `CSc1c[nH]nc1C1CN2CCC1CC2` (stereo not drawn) is 145 to 147 °C.
`O=C(NCCOc1ccc(CC(Oc2ccc(C(F)(F)F)cc2)C(=O)O)cc1)c1ccc(-c2ccccn2)cc1` (stereo not drawn): the melting point fell in the range of 154 to 155 °C.
As for `CCOc1nn2c(-c3ccccc3)nnc2c2ccccc12`, the figure is 172 to 173 °C; as for `O=C1N(CCCOCc2ccccc2)c2ccccc2C12COc1cc3c(cc12)OCCO3` (stereo not drawn), 37 to 38 °C; as for `CCc1nc(C(=O)c2ccc(Cl)cc2Cl)c(C=O)n1C(CC)CC`, 85 to 86 °C.
`CCCCc1c[nH]c(S(C)=O)c1[N+](=O)[O-]` (stereo not drawn) showed a melting point of 133 to 134 °C.
`COC(=O)c1cc(-c2c[nH]nc2-c2ccc(F)cc2)ccn1` came in with a melting point of 239 to 241 °C.
As for `CC1(NC(=NC#N)Nc2cccnc2)CCC1`, the figure is 210 to 212 °C; as for `CNC(=S)n1nc(-c2ccc(Cl)nc2)nc1N`, 208 to 211 °C.
`COC(=O)c1cccc2nc(OCC(F)(F)F)n(Cc3ccc(-c4ccccc4C#N)cc3)c12` displayed a melting point of 143 to 145 °C.
In the case of `CCOC(=O)C1CCN(S(=O)(=O)c2ccc(Br)cc2)CC1`, the melting point is 132 to 133 °C.
Regarding `Cc1cccc(-c2[nH]c(C(C)C)nc2-c2ccc(F)c(-c3ccc(S(C)=O)nc3)c2)n1` (stereo not drawn), the melting point fell in the range of 100 to 102 °C.
Consider `O=c1c2c(Cl)cc(Cl)cc2n(Cc2ccccc2)c(=O)n1CC1CCCCC1`, for which the melting point is 147 to 149 °C.
Take `NC(=O)Cc1ccc(OCCc2coc(-c3ccccc3)n2)cc1`: the melting point is 180 to 184 °C.
Consider `Nc1nc(Cl)c(N)c(NCCCCO)n1`, for which the melting point was 110 to 111 °C.
The compound `CCOC(=O)CCc1cn(Cc2cccnc2OCc2csc(-c3ccccc3)n2)nc1-c1ccccc1` gave a melting point of 88 to 89 °C.
As for `CC(=O)NCC1CN(c2ccc(N3CCC(O)(C(C#N)C4CC4)CC3)c(F)c2)C(=O)O1` (stereo not drawn), the figure is 170 to 172 °C; as for `CCCCCCCN(Cc1ccc(CCCCCC)cc1)C(Nc1ccc(C(F)(F)F)cc1)=C1C(=O)COC1=O`, 94 to 98 °C.
`CC(=O)N(CC(=O)O)c1c(C(=O)c2ccccc2)[nH]c2cc(Cl)ccc12` came in with a melting point of 148 to 154 °C.
Compound `COc1cc(C(=O)c2c[nH]c(-c3cn(S(=O)(=O)c4ccccc4)c4ccccc34)n2)cc(OC)c1OC` gave a melting point of 110 to 112 °C.
As for `COC(=O)c1c2n(c3ccccc13)Cc1ccccc1N1CCN(C)CC21` (stereo not drawn), the figure is 157 to 159 °C; as for `O=C(NCCCCCCCCCNC(=O)c1ccc(OC(F)(F)F)cc1)c1ccc(OC(F)(F)F)cc1`, 144 to 145 °C; as for `CCOC(=O)C(CC(=O)c1ccc(Oc2ccccc2)cc1)SC(=O)c1ccccc1` (stereo not drawn), 95 to 96 °C.
`CCOC(=O)c1sc(Oc2ccc(C(C)=O)c(OC)c2)c2c1CCc1cnn(C)c1-2`: the melting point was in the range of 132 to 133 °C.
